Assay results as given in paper PMC6337261, “Short Peptides with Uncleavable Peptide Bond Mimetics as Photoactivatable Caspase-3 Inhibitors” (Molecules, 2019).

Columns and labels:
[1] = LC-MS analysis of probes before and after UV irradiation; assay type: physicochemical; conditions: irradiation at 365 nm, gradient 10% to 95% acetonitrile with 0.1% formic acid
Procedure: Compounds were irradiated with UV light of 365 nm for 30 min and after removal of the light source added to caspase-3. Residual caspase activity was measured by using a fluorescent caspase ABP as in our previous experiments above.
Although this points towards a cyclization rather than reaction with a water molecule, it is not clear whether it leads to a potent caspase inhibitor. […] Therefore, cyclization seemed improbable, as this would most likely lead to a shift in retention time. We hypothesized that irradiation could potentially lead to oxidation of a very small amount of the ψ(CH2NH) moiety with benzophenone as a photosensitizer, resulting in minute quantities of aldehydes that were not detected on LC-MS, but were sufficient for caspase-3 inhibition. Oxidation of secondary amines under influence of benzophenone has been reported before. […] Note that triazoles cannot undergo this transformation, further explaining their inactivity. The oxidation hypothesis was supported by an experiment in which ψ(CH2NH) peptides 14 and 15, not containing a benzophenone, were irradiated in the presence of 1 eq of spiked-in benzophenone (Figure 3G–I).
All materials were purchased from Sigma Aldrich GmbH (GmbH, Darmstadt, Germany), Carl Roth GmbH + Co. KG (Karlsruhe, Germany), Thermo Fischer Scientific Inc. (Dreieich, Germany), Rapp Polymere GmbH (Tübingen, Germany), Applichem GmbH (Darmstadt, Germany), VWR International GmbH (Darmstadt, Germany), Merck KGaA (Darmstadt, Germany), CreoSalus Inc. (Louisville, KY, USA), and Iris Biotech GmbH (Marktredwitz, Germany) and were used as received, unless otherwise noted. TLC was performed on pre-coated ALUGRAM SIL G plates with detection by a handheld UV lamp (254 nm) and subsequent staining with potassium permanganate, p-anisaldehyde, ninhydrin or cerium ammonium molybdate. LC-MS analysis was performed on a Thermo LCQ Fleet HPLC-MS/MS system using a gradient of 10% to 95% acetonitrile containing 0.1% formic acid. NMR spectra were recorded on a Bruker Avance DRX 400 spectrometer with tetramethylsilane as internal standard. High resolution ESI-FTMS was performed on a Thermo Scientific LTQ Orbitrap Velos Pro mass spectrometer.

caspase-3 = assay: ESI-MS on purified caspase-3 (covalent modification); assay type: binding; conditions: 10a under irradiation at 365 nm
Source text: Our probes were designed to irreversibly photocrosslink to caspase-3. In order to show covalent complex formation, we made use of the alkyne function located at the N-terminus of all probes by installing a tetramethyl rhodamine fluorophore (TAMRA) via copper(I)-catalyzed azide alkyne cycloaddition. […] To exclude that this observation was due to our gel-based read-out, we also performed mass spectrometry experiments. […] This mass shift corresponded to the covalent modification (Figure 3C).
Intact proteins were analyzed on an orbitrap Fusion Lumos mass spectrometer equipped with a nanoelectrospray ion source (Thermo Fischer, Dreieich, Germany). Sample desalting was performed using Amicon Ultra-0.5 3K NMWL centrifugal filters (Merck Millipore, Darmstadt, Germany) according to the manufacturer’s protocol and samples were brought to a final concentration of approx. 1 pmol/µL (in 25% MeOH and 0.5% formic acid). […]
Figure 3 Non-covalent inhibition of caspase-3 by compounds 9 and 10. […] (G) UV irradiation of ψ(CH2NH) peptides 14 and 15 in the presence of benzophenone leads to inhibition of caspase-3, as monitored by competitive ABPP. […] Ac-DEVD-aldehyde (100 nM) was used as a control compound, whereas 9a and 10a (10 μM) were irradiated for 10 min and reacted with sodium bisulfite for an additional 20 min before 30 min incubation with caspase-3 and read-out with a fluorescent caspase ABP.

Substance: Hexynoyl-Asp-Glu-Val-Aspψ(CH2NH)-Ala-Bpa-NH2 [10a]
- Change of probe upon UV irradiation (LC-MS before and after) [1]: did not show obvious changes
- Covalent modification of caspase-3 (mass shift, ESI-MS) (caspase-3): did not reveal any modification
